One compound from patent US8227478B2, “JNK modulators” (Roche Palo Alto LLC, priority 2008, dated 2012) can be followed below.

Usually IC50 stands for the midpoint of a concentration-inhibition curve. Usually melting point stands for the temperature of the solid-liquid transition.

The target in one data set is Human JNK1α1 (Homo sapiens, UniProt P45983). The experiment in a line: JNK assay in vitro, phosphorylation of GST-ATF2 (19-96) with [γ-33P] ATP. The data set is classed as biochemical. Conditions: Human JNK1α1, 2 nM enzyme, 1 μM ATF2, 6 μM ATP (Km); read-out: JNK1 - IC50. The procedure:
(§1) JNK activity was measured by phosphorylation of GST-ATF2 (19-96) with [γ-^33P] ATP. The enzyme reaction was conducted at Km concentrations of ATP and the substrate at final volume of 40 μl in buffer containing 25 mM HEPES, pH 7.5, 2 mM dithiothreitol, 150 mM NaCl, 20 mM MgCl2, 0.001% Tween® 20, 0.1% BSA and 10% DMSO. Human JNK2α2 assay contains 1 nM enzyme, 1 μM ATF2, 8 μM ATP with 1 uCi [γ-^33P] ATP. Human JNK1α1 assay contains 2 nM enzyme, 1 μM ATF2, 6 μM ATP with 1 μCi [γ-^33P] ATP. Human JNK3 (Upstate Biotech #14-501M) assay contains 2 nM enzyme, 1 μM ATF2, 4 μM ATP with 1 μCi [γ-^33P] ATP. The enzyme assay was carried out in the presence or absence of several compound concentrations. JNK and compound were pre-incubated for 10 min., followed by initiation of the enzymatic reaction by adding ATP and the substrate. The reaction mixture was incubated at 30° C. for 30 min. At the end of incubation, the reaction was terminated by transferring 25 μl of the reaction mixture to 150 μl of 10% glutathione Sepharose® slurry (Amersham #27-4574-01) containing 135 mM EDTA. The reaction product was captured on the affinity resin, and washed on a filtration plate (Millipore, MABVNOB50) with phosphate buffered saline for six times to remove free radionucleotide. The incorporation of ^33P into ATF2 was quantified on a microplate scintillation counter (Packard Topcount). Compound inhibition potency on JNK was measured by IC50 value generated from ten concentration inhibition curves fitted into the 3-parameter model: % inhibition=Maximum/(1+(IC50/[Inhibitor])^slope). Data were analyzed on Microsoft Excel for parameter estimation.

The next data set concerns the target Human JNK2α2 (Homo sapiens, UniProt P45984). The data set is described as above. It is filed as biochemical. Conditions: Human JNK2α2, 1 nM enzyme, 1 μM ATF2, 8 μM ATP (Km); read-out: JNK2 - IC50. The protocol: as §1
The test system of a further data set is phospho-c-Jun. The experiment in a line: Phospho-c-Jun translocation assay in TNFα-activated SW1353 cells. It is filed as cell-based. The following applies: Homo sapiens, TNFα 1 ng/ml for 20 min, 30 min compound pre-incubation. The source says:
Inflammation is regulated in part by the action of c-Jun on other genes in the inflammatory pathway. Thus, inhibition of phosphorylated c-Jun translocation to the nucleus provides an indication of the anti-inflammatory activity of a compound. SW1353 cells were purchased from the American Tissue Culture Collection and maintained in growth media containing DMEM medium (Invitrogen) with 10% fetal bovine serum (Invitrogen), ascorbic acid (Sigma), and penicillin/streptomycin/[…] (Invitrogen) under culture conditions (at 37° C. with 5% CO2). Cells were plated at a density of 8,000 cells/well in 100 μl growth medium 24 h prior to the compound treatment. Immediately before the compound treatment, growth media was replaced with 90 μl of fresh media. Compound stock at 10 mM was first diluted in compound vehicle (DMSO) to 3 mM, then diluted in serum-free medium and added to each well as a 10× concentrated solution in a volume of 10 μl, mixed, and pre-incubated with cells for 30 min at 37° C. in 5% CO2. Compound vehicle (DMSO) was maintained at a final concentration of 1% for all samples. After 30 min incubation, the cells were activated with TNFα (1 ng/ml, Roche Biochem) for 20 min. Cells were then fixed, permeabilized, and stained with anti-phospho-c-Jun antibody (Santa Cruz), followed by Alexa Fluor 488 labeled secondary antibody and Hoechet 33342 dye (Invitrogen) per manufacturer's instructions. The signals of phospho-c-Jun were measured for 400 cells per well by the ArrayScan HCS system (Cellomic). The IC50 values were calculated as the concentration of the compound at which the phospho-c-Jun activity was inhibited to 50% of the control value using the 4-parameter fitting function in the ActivityBase program (IDBS).

SMILES strings stand for the structures.

Chain of Human JNK1α1 (P45983 1-384 isoform P45983-2): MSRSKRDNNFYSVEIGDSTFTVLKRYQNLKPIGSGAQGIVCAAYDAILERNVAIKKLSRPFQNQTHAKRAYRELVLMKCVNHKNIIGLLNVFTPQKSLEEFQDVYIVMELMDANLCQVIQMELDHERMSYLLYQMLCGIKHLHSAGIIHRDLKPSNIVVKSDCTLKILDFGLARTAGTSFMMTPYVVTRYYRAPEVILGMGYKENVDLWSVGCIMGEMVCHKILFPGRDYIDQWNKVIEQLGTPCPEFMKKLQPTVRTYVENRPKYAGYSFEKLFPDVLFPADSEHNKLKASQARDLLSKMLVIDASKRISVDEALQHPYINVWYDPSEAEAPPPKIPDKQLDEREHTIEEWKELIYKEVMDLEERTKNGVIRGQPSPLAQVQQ
Chain of Human JNK2α2 (P45984 whole entry): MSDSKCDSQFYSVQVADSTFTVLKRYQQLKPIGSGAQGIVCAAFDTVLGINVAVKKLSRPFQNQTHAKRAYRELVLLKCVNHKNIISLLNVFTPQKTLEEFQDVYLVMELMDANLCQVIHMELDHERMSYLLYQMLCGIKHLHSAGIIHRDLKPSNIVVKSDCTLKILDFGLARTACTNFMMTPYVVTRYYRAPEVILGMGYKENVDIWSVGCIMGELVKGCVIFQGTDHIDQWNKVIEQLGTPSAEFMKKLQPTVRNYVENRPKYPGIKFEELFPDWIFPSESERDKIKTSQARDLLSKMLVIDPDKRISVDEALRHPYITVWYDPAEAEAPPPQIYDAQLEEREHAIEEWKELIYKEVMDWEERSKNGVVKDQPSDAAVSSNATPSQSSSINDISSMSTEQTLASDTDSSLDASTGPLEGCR

In turn, `O=C([C@H]1CC[C@H](Nc2nccc(-n3ccc4c(-c5ccncc5)cccc43)n2)CC1)N1CCC(O)CC1` [Compound 16, (4-Hydroxy-piperidin-1-yl)-{4-[4-(4-pyridin-4-yl-indol-1-yl)-pyrimidin-2-ylamino]-cyclohexyl}-methanone] came in with a melting point of 258 to 259 °C. The IC50 on Human JNK1α1 was 0.044 µM. The 50% inhibitory concentration (IC50) on Human JNK2α2 came out at 0.175 µM. In addition, in the data set on phospho-c-Jun, the IC50 was found to be 2.52 µM.
